Reference: US20150344540A1, “NOVEL GLP-1 RECEPTOR AGONISTS WITH CHOLESTEROL EFFLUX ACTIVITY” (NOVO NORDISK A/S, priority 2012, published 2015)
pEC50: −log10 of the molar value. Read-outs that look alike come from different tables or passages of the source. Where a SMILES comes first, the peptide text is derived from it. [ ]: non-standard residue; d: D form. Aib = CC(C)(N)C(=O)O

Columns and labels:
human GLP-1 receptor = human GLP-1 receptor (Homo sapiens, UniProt P43220); test: Functional GLP-1 receptor assay, in vitro potency (CRE luciferase; whole cells); type: cell-based; details: BHK cells expressing human GLP-1 receptor
Sequence of human GLP-1 receptor (P43220 24-463): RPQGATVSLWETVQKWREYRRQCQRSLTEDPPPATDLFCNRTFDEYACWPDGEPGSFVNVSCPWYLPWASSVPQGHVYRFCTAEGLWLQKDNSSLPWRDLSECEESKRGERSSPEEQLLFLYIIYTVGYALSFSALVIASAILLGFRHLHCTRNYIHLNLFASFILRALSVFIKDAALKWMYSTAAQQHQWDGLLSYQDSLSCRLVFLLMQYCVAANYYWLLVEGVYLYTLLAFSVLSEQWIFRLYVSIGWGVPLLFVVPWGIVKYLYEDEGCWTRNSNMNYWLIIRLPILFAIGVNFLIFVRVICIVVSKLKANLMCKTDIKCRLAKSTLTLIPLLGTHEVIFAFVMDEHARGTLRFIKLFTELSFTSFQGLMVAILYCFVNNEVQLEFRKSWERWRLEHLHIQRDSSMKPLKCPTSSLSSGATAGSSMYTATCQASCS

[1] = tested on: Mouse monocyte/macrophage cell line, RAW 264.7; test: Cholesterol efflux assay (3H-cholesterol, macrophage cell line); type: cell-based; details: RAW 264.7, 4 hrs incubation, 0.1% human serum albumin, ABCA1-mediated efflux
[2] = GLP1R CRE luc 1% HSA EC50 Mean Value, 1% HSA
[3] = 0% HSA, read-out: GLP1R CRE luc 0% HSA EC50 Mean Value

`CC[C@H](C)[C@H](NC(=O)[C@H](Cc1ccccc1)NC(=O)[C@H](CCC(=O)O)NC(=O)[C@H](CCCNC(=N)N)NC(=O)[C@@H](NC(=O)[C@H](C)NC(=O)[C@H](CCC(=O)O)NC(=O)[C@H](CCC(=O)O)NC(=O)[C@H](CCC(=O)O)NC(=O)[C@H](CCSC)NC(=O)[C@H](CCC(N)=O)NC(=O)[C@H](CCCCN)NC(=O)[C@H](CO)NC(=O)[C@H](CC(C)C)NC(=O)[C@H](CC(=O)O)NC(=O)[C@H](CO)NC(=O)[C@@H](NC(=O)[C@H](Cc1ccccc1)NC(=O)[C@@H](NC(=O)CNC(=O)[C@H](CCC(=O)O)NC(=O)C(C)(C)NC(=O)[C@@H](N)Cc1c[nH]cn1)[C@@H](C)O)[C@@H](C)O)C(C)C)C(=O)N[C@@H](CCC(=O)O)C(=O)N[C@@H](Cc1c[nH]c2ccccc12)C(=O)N[C@@H](CC(C)C)C(=O)N[C@@H](CCCCN)C(=O)N[C@@H](CC(N)=O)C(=O)NCC(=O)NC(C)(C)C(=O)N[C@@H](CC(C)C)C(=O)N[C@@H](CCC(=O)O)C(=O)N[C@@H](Cc1ccccc1)C(=O)N[C@@H](CC(C)C)C(=O)N[C@@H](CCC(=O)O)C(=O)N[C@@H](CC(C)C)C(=O)N[C@@H](CC(C)C)C(N)=O` [Compound 34, [Aib2,Glu21,Aib30,Leu31,Glu32,Phe33,Leu34,Glu35,Leu36,Leu371-Exendin-4-(1-37)-peptide amide] (H-H[Aib]EGTFTSDLSKQMEEEAVREFIEWLKNG[Aib]LEFLELL-NH2; N-terminus assumed) was tested, and the pEC50 (human GLP-1 receptor; [2]) was 10.49 and the “4 h Cholesterol Efflux Emax” value [1] was 94%.

`CC[C@H](C)[C@H](NC(=O)[C@H](Cc1ccccc1)NC(=O)[C@H](CCC(=O)O)NC(=O)[C@H](CCCNC(=N)N)NC(=O)[C@@H](NC(=O)[C@H](C)NC(=O)[C@H](CCC(=O)O)NC(=O)CNC(=O)[C@H](CCC(=O)O)NC(=O)[C@H](CC(C)C)NC(=O)[C@H](Cc1ccc(O)cc1)NC(=O)[C@H](CO)NC(=O)[C@H](CO)NC(=O)[C@@H](NC(=O)[C@H](CC(=O)O)NC(=O)[C@H](CO)NC(=O)[C@@H](NC(=O)[C@H](Cc1ccccc1)NC(=O)[C@@H](NC(=O)CNC(=O)[C@H](CCC(=O)O)NC(=O)C(C)(C)NC(=O)[C@@H](N)Cc1c[nH]cn1)[C@@H](C)O)[C@@H](C)O)C(C)C)C(C)C)C(=O)N[C@@H](C)C(=O)N[C@@H](Cc1c[nH]c2ccccc12)C(=O)N[C@@H](CC(C)C)C(=O)N[C@H](C(=O)N[C@@H](CCC(=O)O)C(=O)N[C@@H](CCCCN)C(=O)NC(C)(C)C(=O)N[C@@H](CCCCN)C(=O)N[C@@H](CCC(=O)O)C(=O)N[C@@H](Cc1ccccc1)C(=O)N[C@@H](CC(C)C)C(N)=O)C(C)C` [Compound 81] (H-H[Aib]EGTFTSDVSSYLEGEAVREFIAWLVEK[Aib]KEFL-NH2) was tested, and the pEC50 (human GLP-1 receptor; [3]) was 10.12, the pEC50 (human GLP-1 receptor; [2]) was 10.55 and the “4 h Cholesterol Efflux Emax” value [1] was 112%.

With `CC[C@H](C)[C@H](NC(=O)[C@H](Cc1ccccc1)NC(=O)[C@H](CCC(=O)O)NC(=O)[C@H](CCCCN)NC(=O)[C@@H](NC(=O)[C@H](C)NC(=O)[C@H](CCC(=O)O)NC(=O)CNC(=O)[C@H](CCC(=O)O)NC(=O)[C@H](CC(C)C)NC(=O)[C@H](Cc1ccc(O)cc1)NC(=O)[C@H](CO)NC(=O)[C@H](CO)NC(=O)[C@@H](NC(=O)[C@H](CC(=O)O)NC(=O)[C@H](CO)NC(=O)[C@@H](NC(=O)[C@H](Cc1ccccc1)NC(=O)[C@@H](NC(=O)CNC(=O)[C@H](CCC(=O)O)NC(=O)C(C)(C)NC(=O)[C@@H](N)Cc1c[nH]cn1)[C@@H](C)O)[C@@H](C)O)C(C)C)C(C)C)C(=O)N[C@@H](C)C(=O)N[C@@H](Cc1c[nH]c2ccccc12)C(=O)N[C@@H](CC(C)C)C(=O)N[C@H](C(=O)N[C@@H](CCC(=O)O)C(=O)N[C@@H](CCCCN)C(=O)NC(C)(C)C(=O)N[C@@H](CCCCN)C(=O)N[C@@H](CCC(=O)O)C(=O)N[C@@H](Cc1ccccc1)C(=O)N[C@@H](CC(C)C)C(=O)N[C@@H](CCC(=O)O)C(=O)N[C@@H](CCCCN)C(N)=O)C(C)C` [Compound 70, [Aib8,Glu23,Val25,Glu34,Lys35,Aib36,Lys37]-GLP-1-(7-37)-peptidyl-Glu-Phe-Leu-Glu-Lys amide] the pEC50 (human GLP-1 receptor; [3]) was 9.80 and the “4 h Cholesterol Efflux Emax” value [1] was 91%.

For `CC[C@H](C)[C@H](NC(=O)[C@H](Cc1ccccc1)NC(=O)[C@H](CCC(=O)O)NC(=O)[C@H](CCCNC(=N)N)NC(=O)[C@@H](NC(=O)[C@H](C)NC(=O)[C@H](CCC(=O)O)NC(=O)[C@H](CCC(=O)O)NC(=O)[C@H](CCC(=O)O)NC(=O)[C@H](CCSC)NC(=O)[C@H](CCC(N)=O)NC(=O)[C@H](CCCCN)NC(=O)[C@H](CO)NC(=O)[C@H](CC(C)C)NC(=O)[C@H](CC(=O)O)NC(=O)[C@H](CO)NC(=O)[C@@H](NC(=O)[C@H](Cc1ccccc1)NC(=O)[C@@H](NC(=O)CNC(=O)[C@H](CCC(=O)O)NC(=O)C(C)(C)NC(=O)[C@@H](N)Cc1c[nH]cn1)[C@@H](C)O)[C@@H](C)O)C(C)C)C(=O)N[C@@H](CCC(=O)O)C(=O)N[C@@H](Cc1c[nH]c2ccccc12)C(=O)N[C@@H](CC(C)C)C(=O)N[C@@H](CCCCN)C(=O)N[C@@H](CC(N)=O)C(=O)N[C@@H](CCCCN)C(=O)NC(C)(C)C(=O)N1CCC[C@H]1C(=O)N[C@@H](CCC(=O)O)C(=O)N[C@@H](Cc1ccccc1)C(=O)N[C@@H](CC(C)C)C(=O)N[C@@H](CCC(=O)O)C(=O)N[C@@H](CC(C)C)C(=O)N[C@@H](CC(C)C)C(N)=O` [Compound 35, [Aib2,Glu21,Lys29,Aib30,Glu32,Phe33,Leu34,Glu35,Leu36,Leu371-Exendin-4-(1-37)-peptide amide] (H-H[Aib]EGTFTSDLSKQMEEEAVREFIEWLKNK[Aib]PEFLELL-NH2; N-terminus assumed), the pEC50 (human GLP-1 receptor; [2]) was 10.49 and the “4 h Cholesterol Efflux Emax” value [1] was 48%.

With `CC[C@H](C)[C@H](NC(=O)[C@H](Cc1ccccc1)NC(=O)[C@H](CCC(=O)O)NC(=O)[C@H](CCCCN)NC(=O)[C@@H](NC(=O)[C@H](C)NC(=O)[C@H](CCC(=O)O)NC(=O)CNC(=O)[C@H](CCC(=O)O)NC(=O)[C@H](CC(C)C)NC(=O)[C@H](Cc1ccc(O)cc1)NC(=O)[C@H](CO)NC(=O)[C@H](CO)NC(=O)[C@@H](NC(=O)[C@H](CC(=O)O)NC(=O)[C@H](CO)NC(=O)[C@@H](NC(=O)[C@H](Cc1ccccc1)NC(=O)[C@@H](NC(=O)CNC(=O)[C@H](CCC(=O)O)NC(=O)C(C)(C)NC(=O)[C@@H](N)Cc1c[nH]cn1)[C@@H](C)O)[C@@H](C)O)C(C)C)C(C)C)C(=O)N[C@@H](C)C(=O)N[C@@H](Cc1c[nH]c2ccccc12)C(=O)N[C@@H](CC(C)C)C(=O)N[C@H](C(=O)N[C@@H](CCC(=O)O)C(=O)N[C@@H](CCCCN)C(=O)NCC(=O)N[C@@H](CCCCN)C(=O)N[C@@H](CCC(=O)O)C(=O)N[C@@H](Cc1ccccc1)C(=O)N[C@@H](CC(C)C)C(N)=O)C(C)C` [Compound 113, [Aib8,Glu23,Val25,Glu34,Lys35,Gly36,Lys37]-GLP-1-(7-37)-peptidyl-Glu-Phe-Leu amide] (H-H[Aib]EGTFTSDVSSYLEGEAVKEFIAWLVEKGKEFL-NH2) the pEC50 (human GLP-1 receptor; [3]) was 10.47 and the “4 h Cholesterol Efflux Emax” value [1] was 143%.
